Assays:
Format in all cases: in vivo
[1] = test system: Blumeria graminis f. sp. hordei; assay: Barley powdery mildew (ERYSGH) fungicidal activity; details: 24 h, 1 Day Protectant, read-out: Disease Control ERYSGH 1DP
Protocol: Technical grades of materials were dissolved in acetone, which were then mixed with nine volumes of water containing 110 ppm Triton X-100. The fungicide solutions were applied onto wheat seedlings using an automated booth sprayer to run-off. All sprayed plants were allowed to air dry prior to further handling. Wheat plants (variety Yuma) were grown from seed in a greenhouse in 50% mineral soil/50% soil-less Metro mix until the first leaf was fully emerged, with 7-10 seedlings per pot. These plants were inoculated with an aqueous spore suspension of Septoria tritici either prior to or after fungicide treatments. After inoculation the plants were kept in 100% relative humidity (one day in a dark dew chamber followed by two to three days in a lighted dew chamber at 20° C.) to permit spores to germinate and infect the leaf. The plants were then transferred to a greenhouse set at 20° C. for disease to develop. When disease symptoms were fully expressed on the 1st leaves of untreated plants, infection levels were assessed on a scale of 0 to 100 percent disease severity. Percent disease control was calculated using the ratio of disease severity on treated plants relative to untreated plants. Evaluation of Fungicidal Activity: Barley Powdery Mildew (Blumeria Graminis f. sp. Hordei; Synonym: Erysiphe Graminis f. sp. Hordei; Bayer Code […]) Barley seedlings (variety Harrington) were propagated in soil-less Metro mix, with each pot having 8 to 12 plants, and used in the test when first leaf was fully emerged. Test plants were inoculated by dusting with infected stock plants 24 hr after fungicide treatments. After inoculation the plants were kept in a greenhouse set at 20° C. for disease to develop. Fungicide formulation, application and disease assessment on the sprayed leaves followed the procedures as described in the Example A.

Erysiphe cichoracearum = assay: Powdery mildew of cucumber (ERYSCI) fungicidal activity; details: Golovinomyces cichoracearum, 24 h, 1 Day Protectant, read-out: Disease Control ERYSCI 1DP
Protocol: Technical grades of materials were dissolved in acetone, which were then mixed with nine volumes of water containing 110 ppm Triton X-100. The fungicide solutions were applied onto wheat seedlings using an automated booth sprayer to run-off. All sprayed plants were allowed to air dry prior to further handling. Wheat plants (variety Yuma) were grown from seed in a greenhouse in 50% mineral soil/50% soil-less Metro mix until the first leaf was fully emerged, with 7-10 seedlings per pot. These plants were inoculated with an aqueous spore suspension of Septoria tritici either prior to or after fungicide treatments. After inoculation the plants were kept in 100% relative humidity (one day in a dark dew chamber followed by two to three days in a lighted dew chamber at 20° C.) to permit spores to germinate and infect the leaf. The plants were then transferred to a greenhouse set at 20° C. for disease to develop. When disease symptoms were fully expressed on the 1st leaves of untreated plants, infection levels were assessed on a scale of 0 to 100 percent disease severity. Percent disease control was calculated using the ratio of disease severity on treated plants relative to untreated plants. Evaluation of Fungicidal Activity: Powdery Mildew of Cucumber (Erysiphe cichoracearum; Bayer Code […]) Cucumber seedlings (variety Bush Pickle) were grown in soil-less Metro mix, with one plant per pot, and used in the test when 12 to 14 days old. Plants were inoculated with a spore suspension 24 hr following fungicide treatments. After inoculation the plants remained in the greenhouse set at 20° C. until disease was fully expressed. Fungicide formulation, application and disease assessment on the sprayed leaves followed the procedures as described in the Example A.

[2] = test system: Blumeria graminis f. sp. tritici; assay: Wheat powdery mildew (ERYSGT) fungicidal activity; details: 24 h, 1 Day Protectant, read-out: Disease Control ERYSGT 1DP
Protocol: Technical grades of materials were dissolved in acetone, which were then mixed with nine volumes of water containing 110 ppm Triton X-100. The fungicide solutions were applied onto wheat seedlings using an automated booth sprayer to run-off. All sprayed plants were allowed to air dry prior to further handling. Wheat plants (variety Yuma) were grown from seed in a greenhouse in 50% mineral soil/50% soil-less Metro mix until the first leaf was fully emerged, with 7-10 seedlings per pot. These plants were inoculated with an aqueous spore suspension of Septoria tritici either prior to or after fungicide treatments. After inoculation the plants were kept in 100% relative humidity (one day in a dark dew chamber followed by two to three days in a lighted dew chamber at 20° C.) to permit spores to germinate and infect the leaf. The plants were then transferred to a greenhouse set at 20° C. for disease to develop. When disease symptoms were fully expressed on the 1st leaves of untreated plants, infection levels were assessed on a scale of 0 to 100 percent disease severity. Percent disease control was calculated using the ratio of disease severity on treated plants relative to untreated plants. Evaluation of Fungicidal Activity: Wheat Powdery Mildew (Blumeria Graminis f. sp. Tritici; Synonym: Erysiphe graminis f. sp. Tritici; Bayer Code […]) Wheat plants (variety Yuma) were grown from seed in a greenhouse in 50% mineral soil/50% soil-less Metro mix until the first leaf was fully emerged, with 7-10 seedlings per pot. These plants were inoculated by dusting with infected stock plants 24 hr after fungicide treatments. After inoculation the plants were kept in a greenhouse set at 20° C. for disease to develop. Fungicide formulation, application and disease assessment on the sprayed leaves followed the procedures as described in the Example A.

Leptosphaeria nodorum = assay: Wheat glume blotch (LEPTNO) fungicidal activity; details: Parastagonospora nodorum, 24 h, 1 Day Protectant, read-out: Disease Control LEPTNO 1DP
Protocol: Technical grades of materials were dissolved in acetone, which were then mixed with nine volumes of water containing 110 ppm Triton X-100. The fungicide solutions were applied onto wheat seedlings using an automated booth sprayer to run-off. All sprayed plants were allowed to air dry prior to further handling. Wheat plants (variety Yuma) were grown from seed in a greenhouse in 50% mineral soil/50% soil-less Metro mix until the first leaf was fully emerged, with 7-10 seedlings per pot. These plants were inoculated with an aqueous spore suspension of Septoria tritici either prior to or after fungicide treatments. After inoculation the plants were kept in 100% relative humidity (one day in a dark dew chamber followed by two to three days in a lighted dew chamber at 20° C.) to permit spores to germinate and infect the leaf. The plants were then transferred to a greenhouse set at 20° C. for disease to develop. When disease symptoms were fully expressed on the 1st leaves of untreated plants, infection levels were assessed on a scale of 0 to 100 percent disease severity. Percent disease control was calculated using the ratio of disease severity on treated plants relative to untreated plants. Evaluation of Fungicidal Activity: Wheat Glume Blotch (Leptosphaeria Nodorum; Bayer Code […]) Wheat plants (variety Yuma) were grown from seed in a greenhouse in 50% mineral soil/50% soil-less Metro mix until the first leaf was fully emerged, with 7-10 seedlings per pot. These plants were inoculated with an aqueous spore suspension of Leptosphaeria nodorum 24 hr after fungicide treatments. After inoculation the plants were kept in 100% relative humidity (one day in a dark dew chamber followed by two days in a lighted dew chamber at 20° C.) to permit spores to germinate and infect the leaf. The plants were then transferred to a greenhouse set at 20° C. for disease to develop. Fungicide formulation, application and disease assessment followed the procedures as described in the Example A.

| Structure (SMILES) | pest or weed control at 100 ppm [1] [%] | pest or weed control at 100 ppm (Erysiphe cichoracearum) [%] | pest or weed control at 100 ppm [2] [%] | pest or weed control at 100 ppm (Leptosphaeria nodorum) [%] |
| --- | --- | --- | --- | --- |
| COc1ccnc(C(=O)N[C@H]2COC[C@H](Cc3ccccc3)[C@@H](OCC(C)C)[C@H](C)OC2=O)c1OCOC(=O)C(C)C [Compound 3] | 80 to 100 | 80 to 100 | 80 to 100 | 80 to 100 |
| COc1ccnc(C(=O)N[C@H]2COC[C@H](Cc3ccccc3)[C@@H](OCC(C)C)[C@H](C)OC2=O)c1OCOC(=O)C(C)(C)C [Compound 7] | 80 to 100 | 80 to 100 | 0 to 80 | 80 to 100 |
| COc1ccnc(C(=O)N[C@H]2COC[C@H](Cc3ccccc3)[C@@H](OCC(C)C)[C@H](C)OC2=O)c1OCOC(C)=O [Compound 8, (2-((3S,7S,8R,9S)-7-benzyl-8-isobutoxy-9-methyl-2-oxo-1,5-dioxonan-3-ylcarbamoyl)-4-methoxypyridin-3-yloxy)methyl acetate] | 80 to 100 | 80 to 100 | 80 to 100 | 80 to 100 |
| COc1ccnc(C(=O)N[C@H]2COC[C@H](Cc3ccccc3)[C@@H](OCC(C)C)[C@H](C)OC2=O)c1OC(C)=O [Compound 9, 2-(((3S,7S,8R,9S)-7-benzyl-8-isobutoxy-9-methyl-2-oxo-1,5-dioxonan-3-yl)carbamoyl)-4-methoxypyridin-3-yl acetate] | 80 to 100 | 80 to 100 | 80 to 100 | 80 to 100 |
| COc1ccnc(C(=O)N[C@H]2COC[C@H](Cc3ccccc3)[C@@H](OCC(C)C)[C@H](C)OC2=O)c1OC(=O)OC(C)C [Compound 10, 2-(((3S,7S,8R,9S)-7-benzyl-8-isobutoxy-9-methyl-2-oxo-1,5-dioxonan-3-yl)carbamoyl)-4-methoxypyridin-3-yl isopropyl carbonate] | 80 to 100 | 80 to 100 | 0 to 80 | 80 to 100 |
| COc1ccnc(C(=O)N[C@H]2COC[C@H](Cc3ccccc3)[C@@H](OCCC(=O)N(C)C)[C@H](C)OC2=O)c1OCOC(C)=O [Compound 15] |  |  | 0 to 80 | 0 to 80 |
| COCCCO[C@@H]1[C@@H](Cc2ccccc2)COC[C@H](NC(=O)c2nccc(OC)c2OCOC(C)=O)C(=O)O[C@H]1C [Compound 16] | 80 to 100 | 80 to 100 | 80 to 100 | 80 to 100 |
| CCCO[C@@H]1[C@@H](Cc2ccccc2)COC[C@H](NC(=O)c2nccc(OC)c2OCOC(C)=O)C(=O)O[C@H]1C [Compound 22] | 80 to 100 | 80 to 100 | 80 to 100 | 80 to 100 |
| COc1ccnc(C(=O)N[C@H]2COC[C@H](Cc3ccccc3)[C@@H](OCCCC(F)(F)F)[C@H](C)OC2=O)c1OCOC(C)=O [Compound 23] | 80 to 100 | 80 to 100 | 80 to 100 | 80 to 100 |
| CCCCCO[C@@H]1[C@@H](Cc2ccccc2)COC[C@H](NC(=O)c2nccc(OC)c2OCOC(C)=O)C(=O)O[C@H]1C [Compound 26] | 80 to 100 | 80 to 100 | 0 to 80 | 80 to 100 |
| COc1ccnc(C(=O)N[C@H]2COC[C@H](Cc3ccccc3)[C@@H](OCCCc3ccccc3)[C@H](C)OC2=O)c1OCOC(C)=O [Compound 34] | 80 to 100 | 0 to 80 | 0 to 80 | 80 to 100 |
| COC(=O)/C=C/O[C@@H]1[C@@H](Cc2ccccc2)COC[C@H](NC(=O)c2nccc(OC)c2OCOC(C)=O)C(=O)O[C@H]1C [Compound 36] | 80 to 100 | 0 to 80 | 0 to 80 | 80 to 100 |
| COc1ccnc(C(=O)N[C@H]2COC[C@H](Cc3ccccc3)[C@@H](OC(=O)c3ccccc3)[C@H](C)OC2=O)c1OCOC(C)=O [Compound 37] | 0 to 80 |  | 0 to 80 | 80 to 100 |
| COc1ccnc(C(=O)N[C@H]2COC[C@H](Cc3ccccc3)[C@@H](Oc3ccccc3)[C@H](C)OC2=O)c1OCOC(C)=O [Compound 40] |  |  | 0 to 80 | 80 to 100 |
| COc1ccnc(C(=O)N[C@H]2COC[C@H](Cc3ccccc3)[C@@H](OCC(F)F)[C@H](C)OC2=O)c1OCOC(C)=O [Compound 44] |  | 0 to 80 |  | 80 to 100 |
| COc1ccnc(C(=O)N[C@H]2COC[C@H](Cc3ccccc3)[C@@H](OCCC(C)OC)[C@H](C)OC2=O)c1OCOC(C)=O (stereo partly shown) [Compound 46] |  | 80 to 100 |  | 80 to 100 |
| COc1ccnc(C(=O)N[C@H]2COC[C@H](Cc3ccccc3)[C@@H](OC3CCCC3)[C@H](C)OC2=O)c1OCOC(C)=O [Compound 106] | 80 to 100 | 80 to 100 |  | 80 to 100 |
| COc1ccnc(C(=O)N[C@H]2COC[C@H](Cc3ccccc3)[C@@H](OC3CCCC3)[C@H](C)OC2=O)c1OC(C)=O [Compound 107] | 80 to 100 | 0 to 80 |  | 80 to 100 |
| COc1ccnc(C(=O)N[C@H]2COC[C@H](Cc3ccccc3)[C@@H](OC3CCCC3)[C@H](C)OC2=O)c1OCOC(=O)C(C)C [Compound 108] | 80 to 100 | 0 to 80 |  | 80 to 100 |

Source: patent US8835462B2, “Macrocyclic picolinamides as fungicides” (Dow AgroSciences LLC, priority 2012, dated 2014)
